Toxic doses and inconclusive results are not listed.
Test system: L1210 leukemia ip in BDF1 mice, survival T/C
Assay: NCI In Vivo Anticancer Drug Screen. Data for tumor model L1210 Leukemia (intraperitoneal) in B6D2F1 (BDF1) mice
Details: endpoint: mean survival time, higher = longer survival
Outline: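 Read-out is survival time, reported as the treated-group measurement over the vehicle-control measurement.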

[1] = dose: 100.0 mg/kg/injection, schedule: Q01DX001 (ip), vehicle: carboxymethylcellulose (CMC)
[2] = dose: 200.0 mg/kg/injection, schedule: Q01DX001 (ip), vehicle: carboxymethylcellulose (CMC)
[3] = dose: 400.0 mg/kg/injection, schedule: Q01DX001 (ip), vehicle: carboxymethylcellulose (CMC)
[4] = dose: 100.0 mg/kg/injection, schedule: Q01DX001 (ip), vehicle: saline
[5] = dose: 200.0 mg/kg/injection, schedule: Q01DX001 (ip), vehicle: saline
[6] = dose: 400.0 mg/kg/injection, schedule: Q01DX001 (ip), vehicle: saline
[7] = dose: 50.0 mg/kg/injection, schedule: Q01DX001 (ip), vehicle: saline
[8] = dose: 50.0 mg/kg/injection, schedule: Q01DX009 (ip), vehicle: Klucel (hydroxypropylcellulose) (HPC)
[9] = dose: 100.0 mg/kg/injection, schedule: Q01DX009 (ip), vehicle: Klucel (hydroxypropylcellulose) (HPC)
[10] = dose: 200.0 mg/kg/injection, schedule: Q01DX009 (ip), vehicle: Klucel (hydroxypropylcellulose) (HPC)

SMILES: Cc1c2c(cc3c1[nH]c1ccccc13)C(C)N(C)CC2 (stereo not given)
- T/C (dose: 14.6 mg/kg/injection, schedule: Q01DX Z (ip), vehicle: saline): 110 % of control
- T/C (dose: 22.0 mg/kg/injection, schedule: Q01DX Z (ip), vehicle: saline): 111 % of control
- T/C (dose: 32.5 mg/kg/injection, schedule: Q01DX015 (ip), vehicle: carboxymethylcellulose (CMC)): 107 % of control
- T/C (dose: 33.0 mg/kg/injection, schedule: Q01DX Z (ip), vehicle: saline): 113 % of control
- T/C (dose: 50.0 mg/kg/injection, schedule: Q01DX001 (ip), vehicle: carboxymethylcellulose (CMC)): 109 % of control
- T/C (dose: 50.0 mg/kg/injection, schedule: Q01DX Z (ip), vehicle: saline): 119 % of control
- T/C (dose: 75.0 mg/kg/injection, schedule: Q01DX015 (ip), vehicle: carboxymethylcellulose (CMC)): 108 % of control
- T/C [1]: 109 % of control
- T/C (dose: 150.0 mg/kg/injection, schedule: Q01DX015 (ip), vehicle: carboxymethylcellulose (CMC)): 118 % of control
- T/C (dose: 150.0 mg/kg/injection, schedule: Q01DX Z (ip), vehicle: saline): 166 % of control
- T/C [2]: 106 % of control
- T/C (dose: 200.0 mg/kg/injection, schedule: Q01DX Z (ip), vehicle: carboxymethylcellulose (CMC)): 100 % of control
- T/C (dose: 300.0 mg/kg/injection, schedule: Q01DX015 (ip), vehicle: carboxymethylcellulose (CMC)): 118 % of control
- T/C (dose: 300.0 mg/kg/injection, schedule: Q01DX Z (ip), vehicle: carboxymethylcellulose (CMC)): 107 % of control
- T/C [3]: 98 % of control
- T/C (dose: 750.0 mg/kg/injection, schedule: Q01DX001 (ip), vehicle: carboxymethylcellulose (CMC)): 110 % of control
- T/C (dose: 1500.0 mg/kg/injection, schedule: Q01DX001 (ip), vehicle: carboxymethylcellulose (CMC)): 114 % of control

SMILES: O=[N+]([O-])c1cccnc1Oc1cccc(C(F)(F)F)c1
- T/C (dose: 100.0 mg/kg/injection, schedule: Q04DX003 (ip), vehicle: saline): 100 % of control
- T/C (dose: 200.0 mg/kg/injection, schedule: Q04DX003 (ip), vehicle: saline): 105 % of control
- T/C (dose: 400.0 mg/kg/injection, schedule: Q04DX003 (ip), vehicle: saline): 104 % of control

SMILES: CC(C)(Br)C1CC(=O)C(C)(Br)C(Br)C1 (stereo not given)
- T/C [4]: 98 % of control
- T/C [5]: 101 % of control
- T/C [6]: 101 % of control

SMILES: O=C1C(O)CCN1Cc1ccccc1 (stereo not given)
- T/C [7]: 108 % of control
- T/C [4]: 104 % of control
- T/C [5]: 104 % of control
- T/C [6]: 102 % of control

SMILES: CC(=O)OC1c2cc(Cl)ccc2-c2c(Cl)cc(Cl)cc21 (stereo not given)
- T/C [1]: 95 % of control
- T/C [2]: 95 % of control
- T/C [3]: 95 % of control

SMILES: COc1ccc(Oc2ccccc2)cc1-c1ccccc1
- T/C [1]: 93 % of control
- T/C [2]: 102 % of control
- T/C [3]: 96 % of control

SMILES: COc1ccc(C(c2ccccc2)N(N=O)C(=O)c2ccccc2)cc1 (stereo not given)
- T/C (dose: 38.0 mg/kg/injection, schedule: Q04DX002 (ip), vehicle: Klucel (hydroxypropylcellulose) (HPC)): 94 % of control
- T/C (dose: 75.0 mg/kg/injection, schedule: Q04DX002 (ip), vehicle: Klucel (hydroxypropylcellulose) (HPC)): 94 % of control
- T/C (dose: 150.0 mg/kg/injection, schedule: Q04DX002 (ip), vehicle: Klucel (hydroxypropylcellulose) (HPC)): 94 % of control

SMILES: CCN(CC)C(=O)Nc1cccc([N+](=O)[O-])c1
- T/C (dose: 100.0 mg/kg/injection, schedule: Q04DX002 (ip), vehicle: Klucel (hydroxypropylcellulose) (HPC)): 104 % of control
- T/C (dose: 200.0 mg/kg/injection, schedule: Q04DX002 (ip), vehicle: Klucel (hydroxypropylcellulose) (HPC)): 97 % of control
- T/C (dose: 400.0 mg/kg/injection, schedule: Q04DX002 (ip), vehicle: Klucel (hydroxypropylcellulose) (HPC)): 101 % of control

SMILES: Cc1nsc(N(NC(=O)c2ccccc2)C(=O)c2ccccc2)n1
- T/C (dose: 75.0 mg/kg/injection, schedule: Q01DX001 (ip), vehicle: carboxymethylcellulose (CMC)): 95 % of control

SMILES: COC(=O)C(C(=O)OC)C(c1ccccc1)C(Br)(C(=O)OC)C(=O)OC (stereo not given)
- T/C (dose: 100.0 mg/kg/injection, schedule: Q01DX009 (ip), vehicle: saline with Tween-80): 102 % of control
- T/C (dose: 200.0 mg/kg/injection, schedule: Q01DX009 (ip), vehicle: saline with Tween-80): 94 % of control

SMILES: CC1(C)C(OC=O)C(C)(C)C1OC=O (stereo not given)
- T/C (dose: 25.0 mg/kg/injection, schedule: Q01DX009 (ip), vehicle: Klucel (hydroxypropylcellulose) (HPC)): 100 % of control
- T/C [8]: 93 % of control
- T/C [9]: 94 % of control
- T/C (dose: 100.0 mg/kg/injection, schedule: Q04DX003 (ip), vehicle: Klucel (hydroxypropylcellulose) (HPC)): 96 % of control
- T/C (dose: 200.0 mg/kg/injection, schedule: Q04DX003 (ip), vehicle: Klucel (hydroxypropylcellulose) (HPC)): 98 % of control

SMILES: CN(N=O)c1ccccc1
- T/C [7]: 93 % of control
- T/C [4]: 93 % of control
- T/C [5]: 98 % of control
- T/C [6]: 102 % of control

SMILES: O=[N+]([O-])C1C(O)CCCC1O (stereo not given)
- T/C [4]: 102 % of control
- T/C [5]: 102 % of control
- T/C [6]: 105 % of control

SMILES: CC(=O)Oc1c(Br)c(-c2c(C)c(Br)c(C)c(Br)c2C)c(OC(C)=O)c(Br)c1-c1c(C)c(Br)c(C)c(Br)c1C
- T/C [9]: 95 % of control
- T/C [10]: 100 % of control
- T/C (dose: 400.0 mg/kg/injection, schedule: Q01DX009 (ip), vehicle: Klucel (hydroxypropylcellulose) (HPC)): 95 % of control

SMILES: Cc1cccc(C)c1-n1nnnc1N
- T/C [8]: 105 % of control
- T/C [9]: 119 % of control
- T/C [10]: 101 % of control

SMILES: O=C(CC(=O)C(F)(F)F)c1cccs1.O=C(CC(=O)C(F)(F)F)c1cccs1.O=C(CC(=O)C(F)(F)F)c1cccs1.[Cr]
- T/C (dose: 100.0 mg/kg/injection, schedule: Q01DX001 (ip), vehicle: other): 91 % of control
- T/C (dose: 100.0 mg/kg/injection, schedule: Q04DX003 (ip), vehicle: other): 97 % of control
- T/C (dose: 200.0 mg/kg/injection, schedule: Q01DX001 (ip), vehicle: other): 94 % of control
- T/C (dose: 200.0 mg/kg/injection, schedule: Q04DX003 (ip), vehicle: other): 103 % of control
- T/C (dose: 400.0 mg/kg/injection, schedule: Q01DX001 (ip), vehicle: other): 96 % of control
- T/C (dose: 400.0 mg/kg/injection, schedule: Q04DX003 (ip), vehicle: other): 94 % of control

SMILES: O=C1CCC2CC1CCC2=O
- T/C (dose: 18.75 mg/kg/injection, schedule: Q01DX009 (ip), vehicle: Klucel (hydroxypropylcellulose) (HPC)): 101 % of control
- T/C (dose: 18.75 mg/kg/injection, schedule: Q04DX003 (ip), vehicle: Klucel (hydroxypropylcellulose) (HPC)): 101 % of control
- T/C (dose: 37.5 mg/kg/injection, schedule: Q01DX009 (ip), vehicle: Klucel (hydroxypropylcellulose) (HPC)): 101 % of control
- T/C (dose: 37.5 mg/kg/injection, schedule: Q04DX003 (ip), vehicle: Klucel (hydroxypropylcellulose) (HPC)): 97 % of control
- T/C (dose: 75.0 mg/kg/injection, schedule: Q01DX009 (ip), vehicle: Klucel (hydroxypropylcellulose) (HPC)): 98 % of control
- T/C (dose: 75.0 mg/kg/injection, schedule: Q04DX003 (ip), vehicle: Klucel (hydroxypropylcellulose) (HPC)): 97 % of control

SMILES: NC(N)=N/N=C/c1ccc2c(c1)CCC2
- T/C (dose: 12.5 mg/kg/injection, schedule: Q04DX003 (ip), vehicle: saline): 101 % of control
- T/C (dose: 25.0 mg/kg/injection, schedule: Q04DX003 (ip), vehicle: saline): 97 % of control
- T/C (dose: 50.0 mg/kg/injection, schedule: Q04DX003 (ip), vehicle: saline): 97 % of control
